Results from PubChem BioAssay AID248 (DTP/NCI, 2004).
Inconclusive results and toxic doses are left out. Cut-off read from the data, not from the text of the source: active = T/C of 150% or more; inactive = T/C below 125%. Square brackets hold non-standard residues; d marks the D form. Peptide text beside a SMILES is read from it. * marks the point of attachment. ξ: configuration not given here. Cbz = O=C(OCc1ccccc1)*; ξP = O=C(O)C1CCCN1

Tested on: L1210 leukemia ip in BDF1 mice, survival T/C
Test: NCI In Vivo Anticancer Drug Screen. Data for tumor model L1210 Leukemia (intraperitoneal) in B6D2F1 (BDF1) mice
Conditions: endpoint: mean survival time, higher = longer survival
How it was run: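 Survival endpoint. Drug-treated group vs vehicle group, expressed as T divided by C. Tumor passaged by transplantation.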

[1] = dose: 50.0 mg/kg/injection, schedule: Q01DX001 (ip), vehicle: carboxymethylcellulose (CMC)
[2] = dose: 100.0 mg/kg/injection, schedule: Q01DX001 (ip), vehicle: carboxymethylcellulose (CMC)
[3] = dose: 200.0 mg/kg/injection, schedule: Q01DX001 (ip), vehicle: carboxymethylcellulose (CMC)
[4] = dose: 100.0 mg/kg/injection, schedule: Q04DX003 (ip), vehicle: saline with Tween-80
[5] = dose: 200.0 mg/kg/injection, schedule: Q04DX003 (ip), vehicle: saline with Tween-80
[6] = dose: 400.0 mg/kg/injection, schedule: Q04DX003 (ip), vehicle: saline with Tween-80
[7] = dose: 100.0 mg/kg/injection, schedule: Q01DX001 (ip), vehicle: Klucel (hydroxypropylcellulose) (HPC)

Measured: T/C

O=C(NC(Cc1ccccc1)C(=O)CCl)OCc1ccccc1 (stereo not drawn)
inactive: dose: 25.0 mg/kg/injection, schedule: Q01DX009 (ip), vehicle: saline with Tween-80 115 % of control | dose: 25.0 mg/kg/injection, schedule: Q04DX002 (ip), vehicle: other 107 % of control | dose: 50.0 mg/kg/injection, schedule: Q01DX009 (ip), vehicle: saline with Tween-80 95 % of control | dose: 50.0 mg/kg/injection, schedule: Q04DX002 (ip), vehicle: other 93 % of control | dose: 100.0 mg/kg/injection, schedule: Q04DX002 (ip), vehicle: other 104 % of control | dose: 100.0 mg/kg/injection, schedule: Q04DX003 (ip), vehicle: saline sonified 108 % of control

O=C1C(Br)=C(C2CCCCC2)C(=O)c2ccccc21
inactive: [1] 97 % of control | [2] 116 % of control | [3] 103 % of control

OCC1(CO)CCC1(CO)CO
inactive: dose: 75.0 mg/kg/injection, schedule: Q01DX001 (ip), vehicle: saline 106 % of control | dose: 75.0 mg/kg/injection, schedule: Q01DX009 (ip), vehicle: saline 105 % of control | dose: 150.0 mg/kg/injection, schedule: Q01DX001 (ip), vehicle: saline 102 % of control | dose: 150.0 mg/kg/injection, schedule: Q01DX009 (ip), vehicle: saline 105 % of control | dose: 300.0 mg/kg/injection, schedule: Q01DX001 (ip), vehicle: saline 98 % of control | dose: 300.0 mg/kg/injection, schedule: Q01DX009 (ip), vehicle: saline 97 % of control

C#CC(O)(c1ccccc1)c1cc(OC)c(OC)cc1OC (stereo not drawn)
inactive: [4] 101 % of control | [5] 97 % of control | [6] 94 % of control

CCN(CC)CCCNCC(Cc1ccccc1)c1ccccc1 (stereo not drawn)
inactive: dose: 100.0 mg/kg/injection, schedule: Q04DX002 (ip), vehicle: saline 92 % of control | dose: 200.0 mg/kg/injection, schedule: Q04DX002 (ip), vehicle: saline 99 % of control

O=[N+]([O-])c1cccc(O)c1
inactive: dose: 50.0 mg/kg/injection, schedule: Q01DX009 (ip), vehicle: saline 99 % of control | dose: 100.0 mg/kg/injection, schedule: Q01DX009 (ip), vehicle: saline 92 % of control | dose: 100.0 mg/kg/injection, schedule: Q04DX003 (ip), vehicle: other 106 % of control | dose: 200.0 mg/kg/injection, schedule: Q01DX009 (ip), vehicle: saline 115 % of control | dose: 200.0 mg/kg/injection, schedule: Q04DX003 (ip), vehicle: other 112 % of control

FC(F)(F)c1cccc(NC(=S)NNC(=S)NNc2ccccc2)c1
inactive: dose: 100.0 mg/kg/injection, schedule: Q04DX002 (ip), vehicle: Klucel (hydroxypropylcellulose) (HPC) 101 % of control | dose: 200.0 mg/kg/injection, schedule: Q04DX002 (ip), vehicle: Klucel (hydroxypropylcellulose) (HPC) 101 % of control | dose: 400.0 mg/kg/injection, schedule: Q04DX002 (ip), vehicle: Klucel (hydroxypropylcellulose) (HPC) 101 % of control

O=c1c2c(oc3c(Cl)cc(Cl)cc13)CCCC2
inactive: dose: 50.0 mg/kg/injection, schedule: Q04DX002 (ip), vehicle: gum acacia 100 % of control | dose: 100.0 mg/kg/injection, schedule: Q04DX002 (ip), vehicle: gum acacia 104 % of control | dose: 200.0 mg/kg/injection, schedule: Q04DX002 (ip), vehicle: gum acacia 104 % of control

O=C1C(Cl)=C(Nc2ccccc2Cl)C(=O)C(Cl)=C1Nc1ccccc1Cl
inactive: [1] 101 % of control | [2] 101 % of control | [4] 95 % of control | [3] 90 % of control | [5] 98 % of control | dose: 400.0 mg/kg/injection, schedule: Q01DX001 (ip), vehicle: carboxymethylcellulose (CMC) 95 % of control | [6] 98 % of control

CCCCCCCCCCCCCCCOc1cc(C=O)ccc1OC
inactive: [7] 87 % of control | dose: 200.0 mg/kg/injection, schedule: Q01DX001 (ip), vehicle: Klucel (hydroxypropylcellulose) (HPC) 87 % of control

CSc1ccccc1C1CCCCCC1OS(C)(=O)=O (stereo not drawn)
inactive: dose: 12.5 mg/kg/injection, schedule: Q04DX003 (ip), vehicle: Klucel (hydroxypropylcellulose) (HPC) 109 % of control | dose: 25.0 mg/kg/injection, schedule: Q01DX009 (ip), vehicle: Klucel (hydroxypropylcellulose) (HPC) 109 % of control | dose: 25.0 mg/kg/injection, schedule: Q04DX003 (ip), vehicle: Klucel (hydroxypropylcellulose) (HPC) 106 % of control | dose: 50.0 mg/kg/injection, schedule: Q01DX009 (ip), vehicle: Klucel (hydroxypropylcellulose) (HPC) 107 % of control | dose: 50.0 mg/kg/injection, schedule: Q04DX003 (ip), vehicle: Klucel (hydroxypropylcellulose) (HPC) 102 % of control | [7] 105 % of control | dose: 100.0 mg/kg/injection, schedule: Q01DX009 (ip), vehicle: Klucel (hydroxypropylcellulose) (HPC) 102 % of control | dose: 100.0 mg/kg/injection, schedule: Q04DX003 (ip), vehicle: Klucel (hydroxypropylcellulose) (HPC) 107 % of control

CCCC(CC)NC(N)=O (stereo not drawn)
inactive: [4] 107 % of control | [5] 95 % of control | [6] 109 % of control

Nc1c(Cl)cc2c(c1Br)C(=O)c1ccccc1C2=O
inactive: [7] 117 % of control | dose: 400.0 mg/kg/injection, schedule: Q01DX001 (ip), vehicle: Klucel (hydroxypropylcellulose) (HPC) 90 % of control

CC(=O)C(O)N1C(=O)C=CC1=O (stereo not drawn)
inactive: dose: 1.25 mg/kg/injection, schedule: Q01DX009 (ip), vehicle: saline 103 % of control | dose: 1.25 mg/kg/injection, schedule: Q#A X018 (ip), vehicle: saline 103 % of control | dose: 2.5 mg/kg/injection, schedule: Q01DX009 (ip), vehicle: saline 100 % of control | dose: 2.5 mg/kg/injection, schedule: Q04DX003 (ip), vehicle: water 104 % of control | dose: 2.5 mg/kg/injection, schedule: Q## X006 (ip), vehicle: water 104 % of control | dose: 2.5 mg/kg/injection, schedule: Q#A X018 (ip), vehicle: saline 102 % of control | dose: 5.0 mg/kg/injection, schedule: Q01DX009 (ip), vehicle: saline 91 % of control | dose: 5.0 mg/kg/injection, schedule: Q04DX003 (ip), vehicle: water 102 % of control | dose: 5.0 mg/kg/injection, schedule: Q## X006 (ip), vehicle: water 102 % of control | dose: 5.0 mg/kg/injection, schedule: Q#A X018 (ip), vehicle: saline 100 % of control | dose: 10.0 mg/kg/injection, schedule: Q## X006 (ip), vehicle: water 104 % of control | dose: 10.0 mg/kg/injection, schedule: Q#A X018 (ip), vehicle: saline 100 % of control

COC(=O)C1CCCN1C(=O)CNC(=O)OCc1ccccc1 (stereo not drawn) (Cbz-Gly-[ξP]-OMe)
inactive: dose: 100.0 mg/kg/injection, schedule: Q04DX003 (ip), vehicle: saline 97 % of control | dose: 200.0 mg/kg/injection, schedule: Q04DX003 (ip), vehicle: saline 101 % of control | dose: 400.0 mg/kg/injection, schedule: Q04DX003 (ip), vehicle: saline 95 % of control

O=C(O)/C=C\c1cn(C2OC(CO)C(O)C(O)C2O)c2ccccc12 (stereo not drawn)
inactive: dose: 60.0 mg/kg/injection, schedule: Q01DX001 (ip), vehicle: sodium bicarbonate 105 % of control | dose: 120.0 mg/kg/injection, schedule: Q01DX001 (ip), vehicle: sodium bicarbonate 97 % of control

Cc1ccccc1NC(=S)NCCC(=O)O
inactive: dose: 100.0 mg/kg/injection, schedule: Q04DX002 (ip), vehicle: saline with Tween-80 105 % of control | dose: 200.0 mg/kg/injection, schedule: Q04DX002 (ip), vehicle: saline with Tween-80 97 % of control | dose: 400.0 mg/kg/injection, schedule: Q04DX002 (ip), vehicle: saline with Tween-80 97 % of control
